Laboratory results published in US20230174535A1, “INHIBITORS OF FIBROBLAST GROWTH FACTOR RECEPTOR KINASES” (Kinnate Biopharma Inc., priority 2019, published 2023).
Where two headings read alike, the source gives them in different places.

Assays:
[1] = system: SNU-16 cells; assay: SNU-16 cell-based viability assay (CellTiter-Glo); settings: Homo sapiens
From the text: For determining the covalent nature of compounds, a simple cell-based assay was employed. SNU-16 cells were obtained from ATCC (Cat #CRL-5974; American Type Culture Collection; Manassas, Va. 20110) for this assay. SNU-16 is a cultured line derived in 1987 by J. Park and associates from ascites of a patient with poorly differentiated gastric carcinoma of the stomach, and cells were collected from the patient prior to chemotherapy. The cells express the surface glycoproteins carcinoembryonic antigen (CEA) and TAG-72. No evidence of amplification or rearrangements has been noted in the N-myc, L-myc, myb and EGF receptor genes, although the c-myc proto-oncogene is amplified. There was no expression of the following genes: N-myc, L-myc, c-cis, IGF-2, or gastrin releasing peptide. These cells are known to have an FGFR2 amplification and are therefore relevant for the compound testing at hand (1). For this assay, cells were plated on poly-D-lysine to maintain attachment. Cells were either exposed to compound for 2 hours or 72 hours to test the ability of the compound to stay on target after binding. Briefly, 80 μL cell solution containing 5000 SNU-16 cells was plated per well into 96-well Poly-D-Lysine Cellware plate and incubated in 37° C. incubator overnight to facilitate adherence. Compounds were solubilized fresh from powder as dimethylsulfoxide stocks (DMSO), and plated as half log, 9 point dilutions in DMSO and then plated into cell media containing RPMI1640+10% FBS for ease of transfer without disrupting cells. Total volume in cells was 100 uL. For cells exposed to compound for two hours, cells were incubated in 37° C. incubator for 2 hours, upon which time plates were removed and cells were centrifuged at 1500 rpm for 5 min, followed by removal of all supernatant, and the re-dispense 100 μL of RPMI1640+10% FBS per well. This was repeated twice. Plates were put back into the incubator for 72 hours. For cells exposed to compound for 72 hours, plates were removed from the incubator for the time of washing but not disturbed, and then placed back in the incubator without washing. Assay plates were read for total ATP by luminescent CTG signal at the end of the 72 hour incubation by adding 100 μL of CTG (Cell TiterGlo: Cat #G9241; Promega Corporation, Madison, Wis., 53711) per well, followed by gently agitating the contents for 2 min on the plate shaker, and incubating the plates for 10 min at room temperature in dark. […] Clin Cancer Res 2010; 16:5750-8.

[2] = molecular target: T1, Human FGFR2 (V565F) (Homo sapiens, UniProt P21802, V564F); assay: FGFR2 V565F mutation kinase assay (Reaction Biology HotSpot); type: biochemical; settings: 100 uM ATP
T1 construct: purchased Reaction Biology Corporation (contract assay; enzyme is the CRO's own)
Protocol: Biochemical assays were run at Reaction Biology (Reaction Biology Corporation, 1 Great Valley Parkway, Suite 2, Malvern, Pa. 19355, USA). The Reaction Biology (http://www.reactionbiology.com) HotSpot assay platform was used to measure kinase/inhibitor interactions as described previously (Anastassiadis et al., 2011). In brief, for each reaction, kinase and substrate were mixed in a buffer containing 20 mM HEPES (pH 7.5), 10 mM MgCl2, 1 mM EGTA, 0.02% Brij35, 0.02 mg/mL BSA, 0.1 mM Na3VO4, 2 mM DTT, and 1% DMSO. All compounds were in powder form and freshly solubilized in DMSO for assays. Compounds were then added to each reaction mixture via acoustic dispensing using an ECHO 550 nanoliter dispenser. For Human FGFR2 wildtype testing, a peptide substrate, poly[Glu:Tyr] (4:1) was used to promote the reaction at a concentration of 0.2 mg/ml, with a final ATP concentration as determined by Reaction Biology. For Human FGFR2 (V565F) testing, a peptide substrate, poly[Glu:Tyr] (4:1) was used to promote the reaction at a concentration of 0.2 mg/ml, with a final ATP concentration as determined by Reaction Biology. Compounds were tested in 10-dose IC50 mode with a 3-fold serial dilution. After a 20-min incubation, ATP (Sigma-Aldrich, St. Louis, Mo. 63178) and [g33P] […] Reactions were carried out at room temperature for 2 hr and spotted onto P81 ion exchange cellulose chromatography paper (Reaction Biology). Filter paper was washed in 0.75% phosphoric acid to remove unincorporated ATP. The percent remaining kinase activity relative to a vehicle-containing (DMSO) kinase reaction was calculated for each kinase/inhibitor pair. IC50 values were calculated using Prism 5 (GraphPad).

[3] = molecular target: T2, Human FGFR2 wildtype (Homo sapiens, UniProt P21802); assay: FGFR2 wildtype kinase assay (Reaction Biology HotSpot); type: biochemical; settings: ATP at Km; read-out: FGFR2 (WT) Km IC50
T2 construct: purchased Reaction Biology Corporation (contract assay; enzyme is the CRO's own)
Protocol: Biochemical assays were run at Reaction Biology (Reaction Biology Corporation, 1 Great Valley Parkway, Suite 2, Malvern, Pa. 19355, USA). The Reaction Biology (http://www.reactionbiology.com) HotSpot assay platform was used to measure kinase/inhibitor interactions as described previously (Anastassiadis et al., 2011). In brief, for each reaction, kinase and substrate were mixed in a buffer containing 20 mM HEPES (pH 7.5), 10 mM MgCl2, 1 mM EGTA, 0.02% Brij35, 0.02 mg/mL BSA, 0.1 mM Na3VO4, 2 mM DTT, and 1% DMSO. All compounds were in powder form and freshly solubilized in DMSO for assays. Compounds were then added to each reaction mixture via acoustic dispensing using an ECHO 550 nanoliter dispenser. For Human FGFR2 wildtype testing, a peptide substrate, poly[Glu:Tyr] (4:1) was used to promote the reaction at a concentration of 0.2 mg/ml, with a final ATP concentration as determined by Reaction Biology. For Human FGFR2 (V565F) testing, a peptide substrate, poly[Glu:Tyr] (4:1) was used to promote the reaction at a concentration of 0.2 mg/ml, with a final ATP concentration as determined by Reaction Biology. Compounds were tested in 10-dose IC50 mode with a 3-fold serial dilution. After a 20-min incubation, ATP (Sigma-Aldrich, St. Louis, Mo. 63178) and [g33P] ATP (specific activity 10 microCi/microliter) purchased at PerkinElmer (Boston, Mass., 02118 Cat #BLU 003H250UC) were added at a final total concentration of 10 mM. Reactions were carried out at room temperature for 2 hr and spotted onto P81 ion exchange cellulose chromatography paper (Reaction Biology). Filter paper was washed in 0.75% phosphoric acid to remove unincorporated ATP. The percent remaining kinase activity relative to a vehicle-containing (DMSO) kinase reaction was calculated for each kinase/inhibitor pair. IC50 values were calculated using Prism 5 (GraphPad).

[4] = cells exposed to compound for 2 hours, washed, read after 72 hour incubation, read-out: SNU-16 IC50 (nM) 2 h
[5] = cells exposed to compound for 72 hours, no washing, read-out: SNU-16 IC50 (nM) 72 h

T2 sequence (P21802 22-821): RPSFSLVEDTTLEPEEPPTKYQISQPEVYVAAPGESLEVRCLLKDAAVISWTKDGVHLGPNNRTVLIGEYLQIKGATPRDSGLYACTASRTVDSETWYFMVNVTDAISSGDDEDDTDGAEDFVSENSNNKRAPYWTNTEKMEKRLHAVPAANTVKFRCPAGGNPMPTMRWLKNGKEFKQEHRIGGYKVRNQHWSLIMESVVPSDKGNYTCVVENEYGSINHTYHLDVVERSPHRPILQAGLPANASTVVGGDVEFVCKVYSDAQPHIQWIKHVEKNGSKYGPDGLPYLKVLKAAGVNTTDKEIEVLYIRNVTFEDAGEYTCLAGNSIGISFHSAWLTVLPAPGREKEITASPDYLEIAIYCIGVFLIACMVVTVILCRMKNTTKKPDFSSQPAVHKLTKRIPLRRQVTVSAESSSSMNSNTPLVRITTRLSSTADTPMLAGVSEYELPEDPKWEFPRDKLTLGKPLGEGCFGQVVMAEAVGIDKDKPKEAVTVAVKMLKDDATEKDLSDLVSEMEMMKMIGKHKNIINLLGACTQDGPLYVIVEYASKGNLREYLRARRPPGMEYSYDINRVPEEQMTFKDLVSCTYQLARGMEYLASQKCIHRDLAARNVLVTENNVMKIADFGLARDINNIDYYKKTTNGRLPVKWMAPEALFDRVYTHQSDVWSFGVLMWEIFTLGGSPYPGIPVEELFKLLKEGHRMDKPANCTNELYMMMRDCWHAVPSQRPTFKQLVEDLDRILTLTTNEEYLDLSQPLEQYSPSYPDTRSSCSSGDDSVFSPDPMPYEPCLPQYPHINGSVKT
T1 sequence (P21802 22-822 isoform P21802-3 V565F limits assumed): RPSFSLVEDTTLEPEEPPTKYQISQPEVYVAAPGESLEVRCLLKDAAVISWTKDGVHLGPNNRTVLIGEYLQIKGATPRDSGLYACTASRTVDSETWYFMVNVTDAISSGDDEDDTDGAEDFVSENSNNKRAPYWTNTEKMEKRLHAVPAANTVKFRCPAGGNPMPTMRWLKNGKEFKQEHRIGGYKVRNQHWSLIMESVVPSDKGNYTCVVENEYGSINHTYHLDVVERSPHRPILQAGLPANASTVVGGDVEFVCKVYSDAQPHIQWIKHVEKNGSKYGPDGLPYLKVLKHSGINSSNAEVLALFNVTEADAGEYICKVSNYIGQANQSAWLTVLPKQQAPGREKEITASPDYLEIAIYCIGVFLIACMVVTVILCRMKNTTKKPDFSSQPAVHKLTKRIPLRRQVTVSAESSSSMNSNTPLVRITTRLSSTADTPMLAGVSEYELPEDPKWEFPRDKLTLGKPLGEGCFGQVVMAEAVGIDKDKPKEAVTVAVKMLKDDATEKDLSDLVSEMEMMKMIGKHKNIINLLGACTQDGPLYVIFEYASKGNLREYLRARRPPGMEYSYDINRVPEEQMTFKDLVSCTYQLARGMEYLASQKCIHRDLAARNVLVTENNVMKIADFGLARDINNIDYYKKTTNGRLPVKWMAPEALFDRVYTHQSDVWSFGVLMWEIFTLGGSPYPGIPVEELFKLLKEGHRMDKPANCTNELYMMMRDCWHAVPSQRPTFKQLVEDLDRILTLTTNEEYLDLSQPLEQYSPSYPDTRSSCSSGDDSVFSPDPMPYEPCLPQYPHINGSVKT

SMILES | IC50 [1, 4] | IC50 [1, 5] | IC50 [2] | IC50 [3]
C=CC(=O)N1C[C@H](c2cc(C#Cc3cc(OC)cc(OC)c3)c3c(N)ncnn23)C[C@@H]1COC (single isomer, unassigned) [Chemical Synthesis Example 2] | ≤ 10 nM | ≤ 10 nM | 10 to 100 nM | ≤ 10 nM
C=CC(=O)N1CC(c2cc(C#Cc3c(F)c(OC)cc(OC)c3F)c3c(N)ncnn23)C[C@@H]1COC (single isomer, unassigned) [Chemical Synthesis Example 3] | 1000 to 10000 nM | 100 to 1000 nM | – | –
C=CC(=O)N1CC(c2cc(C#Cc3cc(OC)cc(OC)c3F)c3c(N)ncnn23)C[C@@H]1COC (single isomer, unassigned) [Chemical Synthesis Example 5] | 1000 to 10000 nM | 100 to 1000 nM | – | –

Next, values leading:

IC50 [1, 4] | IC50 [1, 5] | IC50 [2] | IC50 [3] | SMILES
1000 to 10000 nM | 10 to 100 nM | – | – | C=CC(=O)N1C[C@@H](c2cc(C#Cc3cc(OC)cc(OC)c3)c3c(N)ncnn23)C[C@@H]1COC (single isomer, unassigned) [Chemical Synthesis Example 1]
≤ 10 nM | ≤ 10 nM | ≤ 10 nM | ≤ 10 nM | C=CC(=O)N1CC(c2cc(C#Cc3c(F)c(OC)cc(OC)c3F)c3c(N)ncnn23)C[C@@H]1COC (single isomer, unassigned) [Chemical Synthesis Example 4]
≤ 10 nM | ≤ 10 nM | 10 to 100 nM | ≤ 10 nM | C=CC(=O)N1CC(c2cc(C#Cc3cc(OC)cc(OC)c3F)c3c(N)ncnn23)C[C@@H]1COC (single isomer, unassigned) [Chemical Synthesis Example 6]
